Test results taken from patent US9273095B2, “Antibiotic peptide and preparation method therefor and application therefor” (priority 2011, dated 2016).
≈ marks a conversion by molar mass, not a printed value. Non-standard residues stand in square brackets, D forms with d. Residues, ends and D or L forms follow the SMILES beside them.

How the values were obtained:
aspergillus flavous = assay: microbe, parasite or virus in culture; type: cell-based
Protocol: (§1) • (1) Test strains: monilia albicans (candida albicans), candida glabrata, candida krusei, candida tropicalis, aspergillus fumigatus and flavous. Antimicrobial peptides PL-13 (SEQ ID NO: 1) under test are supplied by Jiangsu ProteLight Pharmaceutical & Biotechnology Co., LTD. […] Activation of bacterial strains is conducted at a humidity level of 60% and 25° C. (for aspergillus) or 37° C. (for candida). (2) 0.9% stroke-physiological saline solution comprising 0.5% Tween-80 is used to prepare bacterial suspension for experiment. Hemocytometer is utilized to adjust concentration of the bacterial suspension to 1-3×10^6 CFU/ml (0.5 McFarland units) to make stock solution in reserve at -20° C. During the sensitivity test, the RPMI-1640 liquid medium is diluted 1000 times to 1-3×10^3 CFU/ml. (3) The RPMI-1640 liquid is utilized as diluent to 10-fold dilute stock solution of peptides. […] The eleventh orifice is used as living control orifice, while the twelfth one as blank control. (4) The RPMI-1640 liquid is utilized as diluent to 10-fold dilute stock solution of FCZ and ICZ. […] Ditto for other operations.

[1] = Circular dichroism (CD) spectroscopy, helical structure; type: physicochemical; details: for 50% TFE % helix / Benign buffer % helix: relative to ellipticity (100%) of reference peptide in 50% TFE
Protocol: The mean residue molar ellipticities of peptides are determined by circular dichroism (CD) spectroscopy, using a Jasco J-720 spectropolarimeter (Jasco, Easton, Md.), at 25° C. under benign conditions (50 mM KH2PO4/K2HPO4/100 mM KCl, pH7), as well as in the presence of an α-helix inducing solvent, 2,2,2-trifluoroethanol (TFE) (50 mM KH2PO4/K2HPO4/100 mM KCL, pH 7 buffer/50% TFE). A 10-fold dilution of a 500 μM stock solution of the peptide is loaded into a 0.02 cm fused silica cell and its mean residue molar ellipticity scanned from 190 to 250 nm. The values of mean residue molar ellipticities of the peptide at a wavelength of 222 nm are used to estimate the relative amount of α-helicity of the peptides.
To determine the secondary structure of peptides in different environments, circular dichroism (CD) spectra of the peptide analogs are measured under physiologically related pH and ionic strength (100 mM KCl, 50 mM aq. PO4, pH 7 referred to as benign conditions) and also in 50% TFE to mimic the hydrophobic environment of the membrane. CD spectra of the peptide analogs are measured under benign conditions (100 mM KCl, 50 mM KH2PO4/K2HPO4, pH 7, referred to as KP buffer) and also in 50% trifluoroethanol (TFE) to mimic the hydrophobic environment of the membrane. […] However, in the presence of 50% TFE, all three L-peptides are fully folded α-helical structures with similar molar ellipticities and helicity.
FIG. 2 illustrates graphical results of Circular dichroism (CD) spectra of peptides at pH 7.4 and 25° C., in 50 mM aq. PO4 containing 100 mM KCl, wherein KP buffer (50 mM KH2PO4, K2HPO4, 100 mM KCl, pH 7.4) mimics hydrophilic environment and KP buffer-TFE (1:1 [vol/vol]) mimics hydrophobic environment of cell membrane. The figure above represents the CD spectra of peptides in benign buffer without TFE, whilst the figure below represents CD spectra obtained in the presence of 50% TFE.

candida albicans = assay: microbe, parasite or virus in culture; type: cell-based
Protocol: as §1

[2] = RP-HPLC temperature profiling: hydrophobicity and self-association; type: physicochemical; details: for tR(min) 5° C. / tR(min) 80° C.: RP-HPLC temperature profiling; for PA (min), association parameter: maximal normalized retention time difference within 5-80° C., self-association ability; for tR(min) Max: maximal retention time during temperature profiling 5-80° C.; for ΔtR(X-Peptide C)(min) 5° C.: retention time difference to control peptide C at 5° C.; for ΔtR(X-Peptide C)(min) 5° C. / ΔtR(X-Peptide C)(min) 80° C.: relative hydrophobicity; for ΔtR(X-Peptide C)(min) 80° C.: retention time difference to control peptide C at 80° C.; for Hydrophobicity tR5: retention time in RP-HPLC at pH 2, 5° C.; for Hydrophobicity tR80: retention time in RP-HPLC at pH 2, 80° C.
Protocol: Peptides are analyzed on an Agilent 1200 series liquid chromatograph (Little Falls, Del.). Runs are performed on a Zorbax 300 SB-C8 column (150×4.6 mm I.D.; 5 μm particle size, 300 Å pore size) from Agilent Technologies using linear AB gradient (1% acetonitrile/min) and a flow rate of 1 ml/min, where solvent A is 0.05% aqueous TFA, pH 2 and solvent B is 0.05% TFA in acetonitrile.
We further use temperature profiling during RP-HPLC to determine the self-association ability of various analogs of PL-13 (SEQ ID NO: 1) which would occur through interaction of the non-polar faces of these amphipathic peptides α-helices. We use 50% TFE aqueous acetonitrile and hydrophobic conditions in the reversed-phase column (hydrophobic stationary phase and the hydrophobic organic solvent in the mobile phase) since the hydrophobic environment of a reversed-phase column also could induce α-helical structure. Since its introduction, the technique of RP-HPLC temperature profiling has been applied on several types of molecules, including cyclic β-sheet peptides, monomeric α-helices and α-helices that dimerize, as well as α-helices that dimerize to form coiled-coils. Although peptides are eluted from a reversed-phase column mainly by an adsorption/desorption mechanism, even a peptide strongly bound to a hydrophobic stationary phase will partition between the matrix and the mobile phase when the acetonitrile content becomes high enough during gradient elution. In summary, the mechanism is based on four assumptions: (i) at low temperature, just as an amphipathic α-helical peptide is able to dimerize in aqueous solution (through its hydrophobic, non-polar face), it will dimerize in solution during partitioning in reversed-phase chromatography; (ii) at higher temperatures, the monomer-dimer equilibrium favors the monomer as the dimer is disrupted; (iii) at sufficiently high temperatures, only monomer is present in solution; and (iv) peptide is always bound in its monomeric helical form to the hydrophobic stationary phase, i.e., the dimer can only be present in solution and disruption of the dimer is required for rebinding to the RP-HPLC matrix.
([θ]222=−3,950). Since peptide C is a monomeric random coil peptide in both aqueous and hydrophobic media, its retention behavior over the temperature range 5-80° C. represents only general temperature effects on peptide retention behavior, i.e., a linear decrease in peptide retention time with increasing temperature due to greater solute diffusivity and enhanced mass transfer between the stationary and mobile phases at higher temperatures. Thus, after normalization to the retention times of peptide C, the retention behavior of the peptides only represents peptide self-association ability. Note that the higher the PA value, the greater the self-association ability. The order of peptide self-association ability of the three pairs of peptide enantiomers is identical to the order of peptide hydrophobicity. Apart from the decrease in retention time due to the general temperature effects noted above, destruction of the α-helix will also occur with increasing temperature, resulting in reduced retention times as the peptides become increasingly random coils.
The retention time data for the peptides is shown in Table 6 which records retention times at 5° C., the maximal retention times and retention times at 80° C. during the temperature profiling. Temperatures of 5-80° C. are the lower and upper temperature limits of temperature profiling in RP-HPLC, representing polymerization of the peptides at 5° C. and the monomerization of peptides at 80° C. due to denaturation of peptides by high temperature and dissociation of the polymers. The maximal retention times represent the threshold points at which peptides totally transform from polymeric to monomeric form. […]

aspergillus fumigatus = assay: microbe, parasite or virus in culture; type: cell-based
Protocol: as §1

candida glabrata = assay: microbe, parasite or virus in culture; type: cell-based
Protocol: as §1

candida tropicalis = assay: microbe, parasite or virus in culture; type: cell-based
Protocol: as §1

`CC(=O)N[C@H](Cc1ccccc1)C(=O)N[C@H](CCCCN)C(=O)N[C@H](CCCCN)C(=O)N[C@H](CC(C)C)C(=O)N[C@H](CCCCN)C(=O)N[C@H](CCCCN)C(=O)N[C@H](CC(C)C)C(=O)N[C@H](Cc1ccccc1)C(=O)N[C@H](CO)C(=O)N[C@H](CCCCN)C(=O)N[C@H](CC(C)C)C(=O)N[C@H](CC(C)C)C(=O)N[C@H](CC(N)=O)C(=O)N[C@H](CC(C)C)C(=O)N[C@H](CCCCN)C(N)=O` [PL-37] (Ac-[dF][dK][dK][dL][dK][dK][dL][dF][dS][dK][dL][dL][dN][dL][dK]-NH2) showed a Minimal inhibitory concentration (aspergillus flavous) greater than 64 µg/mL.

For `CC(=O)N[C@H](CCCCN)C(=O)N[C@H](CC(C)C)C(=O)N[C@H](CCCCN)C(=O)N[C@H](CCCCN)C(=O)N[C@H](CC(C)C)C(=O)N[C@H](Cc1ccccc1)C(=O)N[C@H](CO)C(=O)N[C@H](CCCCN)C(=O)N[C@H](CC(C)C)C(=O)N[C@H](Cc1c[nH]c2ccccc12)C(=O)N[C@H](CC(N)=O)C(=O)N[C@H](Cc1c[nH]c2ccccc12)C(=O)N[C@H](CCCCN)C(N)=O` [PL-40] (Ac-[dK][dL][dK][dK][dL][dF][dS][dK][dL][dW][dN][dW][dK]-NH2; N-terminus and C-terminus assumed), the “50% TFE % helix” value [1] was 70.7%, the “Benign buffer % helix” value [1] was 6.0% and the Minimal inhibitory concentration (candida albicans) was 16 µg/mL (≈ 9.09 µM). The Minimal inhibitory concentration (aspergillus flavous) was greater than 64 µg/mL, the “tR(min) 5° C.” value [2] was 33.16 min and the “tR(min) 80° C.” value [2] was 30.94 min. The “PA (min), association parameter” value [2] was 0.55 min, the “tR(min) Max” value [2] was 33.16 min and the “ΔtR(X-Peptide C)(min) 5° C.” value [2] was 10.60 min. The “ΔtR(X-Peptide C)(min) 80° C.” value [2] was 11.01 min, the “Hydrophobicity tR5” value [2] was 33.16 min and the “Hydrophobicity tR80” value [2] was 30.94 min.

For `CC(=O)N[C@H](CC(C)C)C(=O)N[C@H](Cc1ccccc1)C(=O)N[C@H](CCCCN)C(=O)N[C@H](CCCCN)C(=O)N[C@H](CC(C)C)C(=O)N[C@H](CCCCN)C(=O)N[C@H](CCCCN)C(=O)N[C@H](CC(C)C)C(=O)N[C@H](Cc1ccccc1)C(=O)N[C@H](CO)C(=O)N[C@H](CCCCN)C(=O)N[C@H](CC(C)C)C(=O)N[C@H](Cc1c[nH]c2ccccc12)C(=O)N[C@H](CC(N)=O)C(=O)N[C@H](Cc1c[nH]c2ccccc12)C(=O)N[C@H](CCCCN)C(N)=O` [PL-51] (Ac-[dL][dF][dK][dK][dL][dK][dK][dL][dF][dS][dK][dL][dW][dN][dW][dK]-NH2; N-terminus and C-terminus assumed), the “50% TFE % helix” value [1] was 100.0%, the “Benign buffer % helix” value [1] was 16.8% and the “50% TFE [θ]222” value ([1]; mean residue molar ellipticity at 222 nm, 25° C., buffer containing 50% TFE) was 28200 deg · cm^2 · dmol^−1. The Minimal inhibitory concentration (aspergillus flavous) was greater than 64 µg/mL, the “tR(min) 5° C.” value [2] was 42.59 min and the “tR(min) 80° C.” value [2] was 41.35 min. The “PA (min), association parameter” value [2] was 1.63 min, the “tR(min) Max” value [2] was 42.96 min and the “ΔtR(X-Peptide C)(min) 5° C.” value [2] was 20.02 min. For the same compound, the “ΔtR(X-Peptide C)(min) 80° C.” value [2] was 21.42 min, the “Hydrophobicity tR5” value [2] was 42.59 min and the “Hydrophobicity tR80” value [2] was 41.35 min.

“Ac-FKKFKKLLSKLWNWK-NH2 (N-terminus and C-terminus assumed) [PL-32]” gave a Minimal inhibitory concentration (aspergillus fumigatus) of 64 µg/mL, a Minimal inhibitory concentration (aspergillus flavous) greater than 64 µg/mL and a Minimal inhibitory concentration (candida glabrata) of 32 µg/mL.

With “Ac-FKKLKKKFSKLWNWK-NH2 (N-terminus and C-terminus assumed) [PL-23]” the Minimal inhibitory concentration (aspergillus fumigatus) was 64 µg/mL, the Minimal inhibitory concentration (candida albicans) was 16 µg/mL and the Minimal inhibitory concentration (aspergillus flavous) was greater than 64 µg/mL. For the same compound, the Minimal inhibitory concentration (candida glabrata) was 32 µg/mL.

Work on “Ac-FKKLKKLFSKLWNWKK-NH2 (N-terminus and C-terminus assumed) [PL-48]” yielded a Minimal inhibitory concentration (aspergillus fumigatus) of 32 µg/mL, a Minimal inhibitory concentration (aspergillus flavous) greater than 64 µg/mL and a Minimal inhibitory concentration (candida tropicalis) of 8 µg/mL.

Compound “Ac-KKLKKLFSKLWNW-NH2 (N-terminus and C-terminus assumed) [PL-30]” has a Minimal inhibitory concentration (candida albicans) of 16 µg/mL, a Minimal inhibitory concentration (aspergillus flavous) greater than 64 µg/mL and a Minimal inhibitory concentration (candida glabrata) of 32 µg/mL.
